According to patent US20100189660A1, “METHODS FOR THE DETECTION OF FATTY-ACYLATED PROTEIN” (Genentech, Inc., priority 2009, published 2010):

How the values were obtained:
[1] = system: MDCK cells; test: Metabolic incorporation of ω-alkynyl fatty-acyls onto cellular proteins, click with biotin-azide, streptavidin-HRP western blot; format: cell-based, canine; conditions: for degree of protein incorporation / time dependence of levels of labeled protein bands: 100 μM; for degree of protein incorporation: 24 h, western blot with streptavidin-HRP; for time dependence of levels of labeled protein bands: within 6 h; for dose dependence of metabolic incorporation: increasing concentration, at 4 h
Excerpt: Upon preparing the cellular proteome, the alkynyl group incorporated onto acylated proteins was chemoselectively ligated to azide-tagged biotin (for synthesis see Example 2) or fluorophore by a Cu(I)-catalyzed Huisgen alkyne-azide cycloaddition reaction (See, Wang, Q. et al. J. Am. Chem. Soc. 125, 3192-3193 (2003)) (FIG. 1C). The conjugated proteins were separated by gel electrophoresis and analyzed by Western blot using streptavidin-linked horseradish peroxidase (FIG. 2A). […] This was reasonable considering that the majority of protein lipid modifications in cells comprise myristoylation and palmitoylation.
Labeling and detection of lipoproteins in cell extracts: The ω-alkynl fatty-acyl compounds used for the examples were dissolved in DMSO to generate 50 mM stock solutions, and were stored at −80° C. Before cell treatment, the analogs were dissolved in DMEM serum-free media supplemented with 5% BSA (fatty acid-free—SIGMA EC232-936-2) and glutamax (for Raw and MDCK cell lines) at a final concentration of 100 μM. The fatty acid-media solutions were sonicated for 15 minutes at room temperature and then allowed to pre-complex for 15 min at RT.
Cells were seeded with complete media onto 6-well plates (8×10^5 cells/2 ml/well). They were incubated for 24 h before the treatment. Then the growth medium was removed, cells washed once with PBS and 2 mL of the ω-alkynyl fatty-acyls containing media was added to cells and incubated at 37° C. in a 5% CO2 humidified incubator. […] To obtain a final proteome concentration of 2 mg/ml (protein concentration determined by BCA kit) cell lysates were concentrated by centrifugation for 15 minutes at 14,000 rpm at 4° C. with the Centrifugal Ultrafiltration Devices (Pall centrifugal devices MWCO 3K, Nanosep device, cat # P/N ODOO3C34). Protein extracts were then subjected to the probe labeling reaction in 25 μL volume, for 1 h at RT (room temperature), at final concentrations of the following reagents (See, Speers, A. E. & Cravatt, B. F. Profiling enzyme activities in vivo using click chemistry methods. Chem Biol 11, 535-46 (2004); Hsu, T. L. et al. Alkynyl sugar analogs for the labeling and visualization of glycoconjugates in cells. Proc Natl Acad Sci USA 104, 2614-9 (2007)): 0.1 mM biotin-azide, 1 mM Tris (2-carboxyethyl)phosphine hydrochloride (TCEP, Sigma-Aldrich) dissolved in water, 0.2 mM Tris[(1-benzyl-1H-1,2,3-triazol-4-yl)methyl]amine (TBTA, Sigma-Aldrich) dissolved in DMSO/t-butanol (20%/80%) and 1 mM CuSO4 in PBS. The order of addition of the reagents to the protein extracts is important for the reaction and has to be followed as described above.
(§1) Western blotting: Labeled protein lysates were resolved by SDS page using a 4-20% Tris-glycine gel (1 h 10 min at 180V). For immunoblotting of biotin-labeled proteins after electrophoresis, proteins were transferred onto a nitrocellulose membrane, which was blocked with PBS, 0.1% Tween-20 [PBST] and 5% non-fat dried milk for 2 h at RT or overnight at 4° C. The membrane was washed three times with PBST (5 minutes each), and incubated with streptavidin-horseradish peroxidase (Invitrogen Zymed #43-4323, 1:1250 in PBST) for 1 h at RT. The membrane was washed with PBST three times (10 min each) and developed using enhanced chemiluminescence according to manufacturer's recommendation (Amersham Biosciences). For the hydroxylamine-sensitive assay, following the transfer of proteins to nitrocellulose membranes, the membranes were incubated 65 to 72 h at RT with PBST and 5% NH2OH (Sigma-Aldrich). After the hydroxylamine treatment, the membranes were blocked with 5% non-fat dried milk for 2 h at RT or overnight at 4° C. and analyzed by streptavidin blot as described above.

[2] = system: MDCK cells; test: Hydroxylamine-sensitive assay of alkyne-labeled proteins (thioester vs amide linkage); format: cell-based, canine; conditions: blots treated with 5% hydroxylamine for 72 h
Experimental: These experiments validate the utility of C14 and C16 ω-alkynyl fatty-acyls as probes for protein myristoylation and palmitoylation, respectively.
as §1

[3] = system: MDCK cells; test: Specificity of incorporation: cycloheximide treatment and competition with myristic and palmitic acids; format: cell-based, canine; conditions: for probe specificity from competition experiments with myristic and palmitic acids: increasing concentration of myristic (MA) or palmitic acid (PA)
Experimental: MDCK cells were treated with C14 ω-alkynyl fatty acid (100 μM) in the presence or absence cycloheximide (100 μg/ml) for 5 h. Cellular proteome was prepared, reacted with biotin-azide, resolved by gel electrophoresis and detected by western blotting with streptavidin-HRP, as described using methods described herein. Asterisks denote bands labeled by treatment with probe but not in DMSO control; (B, C) Dose-dependent competition of C14 and C16 ω-alkynyl fatty acids with myristic (MA) and palmitic acids (PA), respectively. MDCK cells were treated with ω-alkynyl fatty acid probes as indicated in the presence of increasing concentration of myristic (MA) and palmitic acids (PA). Samples were processed as described herein.
The ω-alkynyl fatty-acyls were metabolically incorporated onto cellular proteins in a time- and dose-dependent manner.
Cells were seeded with complete media onto 6-well plates (8×10^5 cells/2 ml/well). They were incubated for 24 h before the treatment. Then the growth medium was removed, cells washed once with PBS and 2 mL of the ω-alkynyl fatty-acyls containing media was added to cells and incubated at 37° C. in a 5% CO2 humidified incubator. After 24 hours, the cells were washed three times with cold PBS and cell extracts were prepared by resuspending the cells in 400 μL of lysis buffer (1% Nonidet P-40/150 mM NaCl/protease and phosphatase inhibitor/100 mM sodium phosphate, pH 7.5). To obtain a final proteome concentration of 2 mg/ml (protein concentration determined by BCA kit) cell lysates were concentrated by centrifugation for 15 minutes at 14,000 rpm at 4° C. with the Centrifugal Ultrafiltration Devices (Pall centrifugal devices MWCO 3K, Nanosep device, cat # P/N ODOO3C34). […]
Western blotting: Labeled protein lysates were resolved by SDS page using a 4-20% Tris-glycine gel (1 h 10 min at 180V). […] After the hydroxylamine treatment, the membranes were blocked with 5% non-fat dried milk for 2 h at RT or overnight at 4° C. and analyzed by streptavidin blot as described above.

[4] = system: PC3 prostate cancer cells; test: Fluorescence microscopy of cellular fatty-acylated proteins; format: cell-based; conditions: for subcellular distribution of probe: PC3 cells, 100 μM, 3 h, confocal microscopy
Experimental: Cells were treated with DMSO or ω-alkynyl fatty-acyls (100 μM) as indicated for 3 h. The cells were then fixed, permeabilized and click reacted with rhodamine-azide and imaged by epifluorescence microscopy. […] All images were acquired the same way using 63× oil objective. The fluorescence along the z-axis is shown on top of each confocal section (Scale bar, 10 μm); (J, K, L) The distribution of lipid-modified proteins in different cellular states can be monitored by fluorescence imaging. […] The fluorescence along the z-axis is shown on the left-hand side of panel (K).
Cells were then fixed, permeabilized and click reacted with biotin-azide followed with treatment with streptavidin-conjugated Alexa488 and (optionally Hoechst stain for nuclei staining) and imaged using epifluorescence microscopy technique as described herein.
Fluorescence microscopy: Cells were seeded onto 12-well plates (4×10^5 cells/well) containing coverslips and incubated for 24 h before treatment. The growth medium was removed and cells were washed once with PBS before adding 1 mL of medium containing the co-alkynyl fatty acid at the indicated concentration. After 24-48 h incubation at 37° C./5% CO2, cells were washed three times with PBS to remove excess probe (ω-alkynyl fatty acid) and fixed with 4% paraformaldehyde (PFA) for 10 min at RT. Cells were then permeabilized with PBS/0.1% triton X-100 for 1-2 min at RT, washed extensively with the following reagents: 0.1 mM biotin-azide or rhodamine-azide, 1 mM Tris (2-carboxyethyl)phosphine hydrochloride (TCEP) dissolved in water, and 1 mM CuSO4 in PBS at RT for 1 h. The labeled cells were rinsed extensively with PBS and blocked in PBS/5% BSA for 45 min at RT. Cells were stained with streptavidin-conjugated AlexaFluor 488 (Invitrogen cat # S32354, 1:500) in PBS/5% BSA for 45 min at RT and nuclei were stained with Hoechst 33342 (MP # H21492; 1:10,000 in PBS) for 10 min at RT. For labeling with rhodamine-azide, cells were directly stained with Hoechst.

[5] = PC3 cells undergoing cell division, tubulin marker

Row | SMILES | degree of protein incorporation [1] | time dependence of levels of labeled protein bands [1] | dose dependence of metabolic incorporation [1] | sensitivity of labeled proteins to hydroxylamine / type of linkage [2] | probe specificity from competition experiments with myristic and palmitic acids [3] | distribution of labeled proteins during cytokinesis [4, 5] | distribution of labeled proteins in metaphase cells [4, 5] | subcellular distribution of probe [4] | effect on protein labeling with C14 ([3]; C14 100 μM, cycloheximide 100 μg/ml, 5 h)
1 | C#CCCCCCCCCCCCCCC(=O)O [C16, 15-Hexadecyn-1-oic acid] | highest degree of protein incorporation | time-dependent increase in the levels of labeled protein bands | dose-dependent metabolic incorporation | substantial sensitivity to hydroxylamine | S-palmitoylation | concentrate at the cleavage furrow | at the plasma membrane and in dense structures around the spindle and throughout the body | distributed in a punctuate pattern outside the nucleus | –
2 | C#CCCCCCCCC(=O)O [C11] | – | – | – | predominantly attach via thioester bonds | – | – | – | – | –
3 | C[C@@H]1C[C@@H]([C@H](O)CC2CC(=O)NC(=O)C2)C(=O)[C@@H](C)C1 [cycloheximide, reference compound] | – | – | – | – | – | – | – | – | inhibits protein labeling with C14
4 | C#CCCCCCCCCCCCC(=O)O [C14, 13-Tetradecyn-1-oic acid] | highest degree of protein incorporation | time-dependent increase in the levels of labeled protein bands | dose-dependent metabolic incorporation | resistance to hydroxylamine treatment | specific probes for protein N-myristoylation | – | – | distributed in a punctuate pattern outside the nucleus | –
